In US11827624B2, “Covalent immune recruiter compounds for immune cell recognition and associated uses” (McMaster University, priority 2020, dated 2023):

Experiments:
HEK PSMA+cells = assay: Flow cytometry antibody recruitment to the target cell surface; format: cell-based, human
Procedure: CIR 3 or ARM 11 (640 nM) was incubated with 320 nM antibody (mmAb or mAb) at room temperature overnight. After overnight incubation, a dilution series (1:2, 1:3, 1:3, 1:3) was conducted using each condition stock which was then equilibrated for 90 minutes prior to addition to the assay well plate. HEK293 cells transfected with PSMA, were washed 3× and placed in a flow buffer containing 4% FBS, 0.5 mM EDTA/EGTA, 0.1% Sodium Azide, at a concentration of 2×10^6 Cells/mL. 75 μL of cells were added (150 000 Cells per sample) and kept on ice. 25 μL of antibody+CIR or antibody+ARM conditions prepared above were added to the target cells (experimental antibody concentrations: 80 nM, 40 nM, 13.3 nM, 4.4 nM, 1.5 nM). For the DNP Control, 4.5 mM was added to antibody for 5 minutes, then the CIR/ARM was added, and the solution incubated overnight. […]
Elimination equilibrium of the ARM:antibody through a covalent linkage to CIRs, and its impact on total antibody recruitment to target cells, at different therapeutically relevant antibody concentrations was next evaluated. […] This leads to increases in the mean fluorescence intensity (MFI) of associated cell populations, detectable in flow cytometry.
Antibody recruitment to the cell surface is proportional to the mean fluorescence intensity (MFI) of cell populations, bound to mmAb antibody complexes comprising CIR 3 or ARM 11. […]

PSMA coated beads = assay: Flow cytometry ADCP assay, PSMA coated beads and U937 monocytes; format: cell-based, human; details: 400 nM CIR 3, 200 nM anti-DNP IgG, 10% FBS+RPMI
Procedure: 24 hours prior to inducing phagocytosis, 6 million U937 monocytes were seeded at 500,000 cells/mL and activated with IFN-γ ([…]). These cells were then counted and washed twice with serum free assay media (neat RPMI). Cells were then suspended to a concentration of 1 million cells/mL and stained with 1.9 μM Vybrant™ DiD Cell-Labelling Solution for 30 minutes (37° C., 5% CO2). Cells were then washed 3× with warm assay media (AM, 10% Ultra Low IgG FBS in RPMI) and resuspended to a concentration of 1.5 million cells/mL for use.
5.6 million YG strep beads were washed 3× with PBS and resuspended in 150 μL of a saturating concentration of biotinylated-PSMA solution. This was allowed to incubate at 4° C. for 1 hour and then washed 3× with serum free AM. The beads were resuspended with AM to a concentration of 15 million beads/mL for use.
All stocks were made in AM. The initial anti-DNP antibody stock solution was made (320 μL of 200 nM). 75 μL of this was removed and 0.4 μL of PMPA solution was added (250 mM in DMSO). […] Beads were detected in the PE-Cy7 channel, monocytes were detected in the APC Cy7 channel, PSMA loading was confirmed with the Alexa 647 channel. […] ADCP was determined by plotting monocyte stain against bead stain, and was quantified as % Target Phagocytosis=(Double Positive Events)/PSMA Bead Target Events+Double Positive Events×100. […]

O=C(O)CC[C@H](NC(=O)N[C@@H](CCCCNC(=O)NCCOCCOCCOCCOCCOCCOCCOCCOC(=O)n1cnc(CCNC(=O)CNc2ccc([N+](=O)[O-])cc2[N+](=O)[O-])c1)C(=O)O)C(=O)O [CIR 3] was tested. Which “total antibody recruitment to the target cell surface (MFI)” value (HEK PSMA+cells; higher antibody concentrations (40-80 nM)) did it give?
The value was “comparable efficiencies”.

What about the “total antibody recruitment to the target cell surface (MFI)” value (HEK PSMA+cells; sub-saturating mAb or mmAb (<40 nM), 37° C.) of the same compound?
Its value is “more total antibody recruitment to the target cell surface compared to ARM 11”.

And the “ADCP of PSMA coated beads” value (PSMA coated beads)?
Its value is “could selectively affect ADCP of PSMA coated target beads via covalent recruitment of anti-DNP, in a time dependent manner”.
